Earlier results in US11472851B2, “Recombinant bacillus subtilis and application thereof” (priority 2019, dated 2022).

Sublancin (GLGKAQCAALWLQCASGGTIGCGGGAVACQNYRQFCR; Sublancin)
phagocytosis of macrophages (macrophages): enhance the phagocytosis of macrophages
immune function of poultry (poultry): enhance the immune function of poultry
